Here are results for 7 compounds from patent publication US9993444B2, “Use of beta-adrenergic inverse agonists for smoking cessation” (INVION, INC., priority 2011, dated 2018).

SMILES strings stand for the structures. “Also recorded” adds a separate entry of the source.

For assay [1] the following is noted: acute administration; U.S. Pat. No. 6,284,800; cited from earlier work.
In the next assay the test system is β-adrenergic receptor. The settings on record: cited from earlier work.
The test system of assay [2] is asthmatic mice. Kind of assay: Lung histology (periodic acid-Schiff stain, goblet cells/mucus) after chronic inverse agonist treatment of ovalbumin-sensitized and -challenged mice. In kind it is in vivo, Balb/cJ mice. The protocol: (§1) Mice were made asthmatic by sensitization to the antigen ovalbumin. Balb/cJ mice aged 6 weeks (Jackson Animal Laboratory, Bar Harbor, Me.) were housed under specific pathogen-free conditions and fed a chicken ovalbumin-free diet. Mice were sensitized with subcutaneous injection of 25 μg of ovalbumin adsorbed to aluminum hydroxide on protocol days 2, 9, and 16. Subsequently, mice were given […] of saline solution containing 25 μg of ovalbumin intranasally, on a daily basis, from protocol days 23 through 27. A group of ovalbumin-sensitized saline-challenged mice serves as controls for systemic sensitization and respiratory challenges with ovalbumin. Prior to intranasal administrations, mice were sedated with halothane vapor. For the study of this Example, ovalbumin-sensitized and ovalbumin-challenged mice, and ovalbumin-sensitized and saline-challenged mice will be referred to as asthmatic mice and control mice, respectively.
(§2) Animals received drug treatment for 7 days from day 21 to 27 of the sensitization/challenging protocol; ICI-118,551 at 10 mg/kg, was administered 3 times a day subcutaneously by osmotic minipump (Alzet®, #2004, Durect Corporation, Cupertino, Calif.). ICI-118,551 was dissolved in 50% DMSO. […]

The test system of assay [3] is asthmatic mice. Kind of assay: Lung histology (hematoxylin-eosin) after chronic inverse agonist treatment of ovalbumin-sensitized and -challenged mice. In kind it is in vivo, Balb/cJ mice. The note with it: ICI-118,551 10 mg/kg subcutaneously by osmotic minipump, 7 days (day 21 to 27). The protocol:
as §1, §2

Assay [4] has as its system tracheas from asthmatic mice. The settings on record: chronically treated asthmatic mice, excised tracheas; WO 02/29534; cited from earlier work.
The subject of assay [5] is sensitized and challenged mice. The experiment in a line: Airway hyperresponsiveness to methacholine in a mouse model of obstructive lung disease, chronic administration. In kind it is in vivo. The settings on record: for airway hyperresponsiveness: compared to untreated sensitized and challenged mice. The source says: Even though alprenolol is a β-adrenergic antagonist, it has partial agonist activity. Carvedilol is a β1/β2 non-selective adrenergic antagonist with α1-adrenergic antagonist activity.

A further assay has as its system patients with CHF. The settings on record: cited from earlier work.

`CC(C)NC[C@@H](O)COc1cccc2ccccc12` [D-propranolol]: in assay [1], the “antigen-induced bronchoconstriction and airway hyperresponsiveness” value was “beneficial in inhibiting antigen-induced bronchoconstriction and reducing airway hyperresponsiveness”. Further, the “potency in inhibiting the β-adrenergic receptor relative to the L-form” value in the assay on β-adrenergic receptor (U.S. Pat. No. 5,116,867) is 1/100. Besides, in the assay with β-adrenergic receptor (U.S. Pat. No. 6,284,800), the “activity with respect to β-adrenergic receptors” value was “inactive”.
Consider `Cc1ccc(OCC(O)C(C)NC(C)C)c2c1CCC2` (stereo not shown) [ICI 118,551], for which, in the assay with asthmatic mice [2] (ICI-118,551 10 mg/kg subcutaneously by osmotic minipump, 7 days (day 21 to 27)), the “appearance of lung epithelial cells, PAS stain (FIG. 6)” value is “appear substantially normal”. Besides, the “transformation of lung epithelium from ciliated cells to mucus-producing goblet cells (FIGS. 1-6)” value in the assay on asthmatic mice [2] (chronic treatment) is given as “restores the airway epithelium to a normal healthy state; also recorded: substantially reversed the transformation of lung epithelium”. Further, the “appearance of lung epithelial cells, hematoxylin-eosin staining (FIG. 3)” value in the assay on asthmatic mice [3] is listed as “substantially returned to their normal appearance”. Moreover, the “rank of effectiveness on tracheal contraction in response to methacholine” value (“rank of effectiveness” for short) in assay [4] is recorded as “then ICI-118,551”.
`CC(C)NC[C@H](O)COc1cccc2ccccc12` [L-form of propranolol, propranolol]: the specific lung resistance result in assay [1] is on record as “increased specific lung resistance”.
Take `C=CCc1ccccc1OCC(O)CNC(C)C` (stereo not shown) [alprenolol]: in assay [5], the airway hyperresponsiveness entry was “does not reduce airway hyperresponsiveness; also recorded: without any activity”. In assay [4], the “rank of effectiveness” value is “most effective compound”.
Take `CC(C)(Cc1c[nH]c2ccccc12)NCC(O)COc1ccccc1C#N` (stereo not shown) [bucindolol]: the “clinical outcome in congestive heart failure (mortality / benefit over placebo)” value with patients with CHF was “failed to demonstrate any benefit over placebo”.
As to `COc1ccccc1OCCNCC(O)COc1cccc2[nH]c3ccccc3c12` (stereo not shown) [carvedilol], the “clinical outcome in congestive heart failure (mortality / benefit over placebo)” value in the assay on patients with CHF is given as “significant mortality reduction”. In addition, in assay [5], the “sensitivity of the responsiveness to methacholine” value is listed as “shifts the sensitivity of the responsiveness to methacholine to lower concentrations” and the airway hyperresponsiveness result is “does reduce airway hyperresponsiveness”. Besides, the “rank of effectiveness” value in assay [4] is recorded as “followed by carvedilol”.
As to `COCCc1ccc(OCC(O)CNC(C)C)cc1` (stereo not shown) [metoprolol], the “clinical outcome in congestive heart failure (mortality / benefit over placebo)” value with patients with CHF is given as “significant mortality reduction”.
